The results in this text go back to patent US20250381269A1, “BISPECIFIC ANTIBODY BINDING EGFR AND B7-H3” (FORTVITA BIOLOGICS (SINGAPORE) PTE. LTD., priority 2022, published 2025).

One experiment deals with H1650. As to the kind of experiment: ADCC report assay, H1650. The experiment is classed as cell-based. The settings on record: EGFR Amplification Del19, KRAS WT, effector/target 10:1, 20 h. As for the experimental part: (§1) In the ADCC report assay, ADCC effector cells ((Promega, G7102)) are engineered cells in which FcRIIIa (V158) receptor is overexpressed into Jurkat T cells, which rapidly respond to ADCC through the NFAT-RE driving element within the Jurkat T cells.
(§2) • (1) Tumor cells (cell lines listed in Table 3) and ADCC effector cells (Promega, G7102) were mixed well (1.5E4 cells: 1.5E5 cells/well/100 μL (1.5E5: 1.5E6 cells/mL)) according to an effector/target ratio (10:1), and added to a 96-well white plate (NUNC, 136101). • (2) The antibody molecules prepared in advance by dilution were added to the corresponding cell well plates, mixed well, and cultured at 37° C. with 5% CO2 for 20 h. • (3) The Bio-glo reagent (Promega, G755B) prepared in advance was added to the cell well plate, the plate was left to stand at room temperature for 10-15 min in the dark, and then the cells were detected by a multimode microplate reader (Molecular Devices, Spectra MAXi3).

Another experiment deals with H292. Kind of experiment: ADCC report assay, H292. The settings on record: EGFR WT, KRAS WT, effector/target 10:1, 20 h. The experiment is classed as cell-based. As for the experimental part:
as §1, §2

The next experiment concerns H322. Kind of experiment: Proliferation inhibition experiment, H322 (NSCLC). The settings on record: EGFR WT, KRAS WT. The experiment is classed as cell-based. As for the experimental part:
(§3) • (1) NSCLC: plated at 1500-2500 cells/100 μL in a 96-well low-adsorption plate (Corning, CLS7007-24EA) for 3D cell culture, in which the following cell lines and specific amounts were used: • NSCLC: 2000 cells/100 μL/well • NCI-H292: Cell Bank of the Chinese Academy of Sciences, SCSP-582 • NCI-H322: Cobioer, CBP60134 • NCI-H1650: ATCC, CRL-5883 • NCI-H1975: ATCC, CRL-5908 • SK-MES-1: CoBioer, CBP60152 • NCI-H1703: ATCC, HTB-43 • PC9+hB7H3: constructed as described above • CRC and HNSCC: plated at 1500-2000 cells/100 μL in a 96-well white-bottom plate (NUNC, 136101) for 2D cell culture, in which the following cell lines and specific amounts were used: • CRC: 1500 cells/100 μL/well • CCK-81: CoBioer, CBP60581 • HT-55: CoBioer, CBP60012 • H508: CoBioer, CBP60795 • LS180: CoBioer, CBP60034 • HNSCC: 1500 cells/100 μL/well • TE-1: CoBioer, CBP60655 • Colo680: CoBioer, CBP60452. (2) The antibody molecules prepared in advance by dilution were added to the corresponding cell well plate, mixed well, and cultured in an incubator at 37° C. with 5% CO2 for 5 days. • (3) After 5 days of continuous culture for proliferation inhibition assay, the Cell-Titer reagent (Promega, G7572) prepared in advance was added to cell wells, the plate was left to stand at room temperature for 15-25 min in the dark, and then CRC and HNSCC cells were directly detected by a multimode microplate reader (Molecular Devices, Spectra MAXi3). • (4) NSCLC: Cell-Titer and the cell mixture were transferred to a 96-well white-bottom plate (NUNC, 136101) and detected by a multimode microplate reader (Molecular Devices, Spectra MAXi3).

The test system of another experiment is TE-1. As to the kind of experiment: Proliferation inhibition experiment, TE-1 (HNSCC). The following applies: EGFR WT, KRAS WT. It is filed as cell-based. As for the experimental part:
as §3

In a further experiment the test system is H358. Kind of experiment: ADCC report assay, H358. The experiment is classed as cell-based. The settings on record: EGFR WT, KRAS G12C, effector/target 10:1, 20 h. As for the experimental part:
as §1, §2

The test system of experiment [1] is NCI-H292 tumor-bearing mice. Kind of experiment: Anti-tumor efficacy in NCI-H292 tumor-bearing mice. It is filed as in vivo. The settings on record: NCI-H292, Balb/c Nude mice, 5 mg/kg i.p. Q3-4D x4; for Tumor volume (mm^3): day not printed in column (TGI based on day 22); for Complete response rate @ Day 59: tumor volume of 0, 5 mice per group; for Tumor growth inhibition (%) @ Day 22: vs h-IgG 5 mg/kg. The source says: SPF female Balb/c Nude mice (purchased from Beijing Vital River Laboratory Animal Technology Co., Ltd.) with certificate No. 110011211108430747 were used in the experiment.
NCI-H292 cells were routinely subcultured for the subsequent in-vivo experiment. The cells were collected by centrifugation. Then the NCI-H292 cells were resuspended in an equal-proportion mixture of PBS (1×) and Matrigel Matrix (Corning) to prepare a cell suspension with a cell concentration of 20×10^6 cells/mL. On day 0. 0.2 mL of the cell suspension was taken and subcutaneously inoculated to the right abdominal area of Balb/c Nude mice to establish NCI-H292 tumor-bearing mouse models.
Four days after the tumor cell inoculation, the tumor volume in each mouse was measured. The mice were grouped (with 5 mice in each group).
h-IgG. […] Administration was performed on days 4, 8, 12, and 15 after the inoculation of NCI-H292 cells. Mice were monitored for tumor volume and body weight twice a week. […] Since death of mice due to tumors occurred earlier in some groups, relative tumor growth inhibition (TG1%) was calculated based on the tumor volume on day 22 after the inoculation by the following formula:
TG1%=100%×(control group tumor volume−treatment group tumor volume)/(control group tumor volume−control group tumor volume before administration).
Tumor volume measurement: The maximum length of major axis (L) and maximum length of minor axis (W) of tumors were measured with a vernier caliper, and tumor volume was calculated by the following formula: V=L×W^2/2.
The mice were weighed using an electronic balance. Mice with tumor volumes above 2000 mm3 or weight loss above 20% were euthanized.

The test system of another experiment is Colo-680N. Kind of experiment: Proliferation inhibition experiment, Colo-680N (HNSCC). The settings on record: EGFR WT, KRAS WT. The experiment is classed as cell-based. As for the experimental part:
as §3

The subject of another experiment is H1703. As to the kind of experiment: ADCC report assay, H1703. It is filed as cell-based. The following applies: EGFR Amplification, KRAS WT, effector/target 10:1, 20 h. As for the experimental part:
as §1, §2

The EC50 is the midpoint of the concentration-response curve. In general, IC50 refers to the concentration needed to halve the response being measured. As to amivantamab [JNJ372], the EC50 in the experiment with H1650 is 0.102 nM; with H292, 0.083 nM; in the experiment with H358, 0.018 nM; with H1703 it was 0.119 nM. The “Max inhibition (%) Mean ± SD” value in the experiment on H322 was determined as 38.2 ± 6.7%; in the experiment on TE-1, 32.2 ± 4.7%; with Colo-680N, 26.5 ± 2.2%. The IC50 with H322 (3D culture, 5 days) came out at 8.06 nM; in the experiment on TE-1 (2D culture, 5 days), 570 nM; in the experiment on Colo-680N (2D culture, 5 days), 25.5 nM. In addition, the “Tumor volume (mm^3)” value in experiment [1] is recorded as 177 mm^3. The “Complete response rate @ Day 59” value in experiment [1] was 0/5. The “Tumor growth inhibition (%) @ Day 22” value in experiment [1] came out at 100%.
In the case of zalutumumab [Zalu mAb], the EC50 in the experiment with H1650 turned out to be 0.021 nM; in the experiment on H292 it was 0.009 nM; in the experiment with H358, 0.004 nM; with H1703, 0.007 nM. The “Max inhibition (%) Mean ± SD” value in the experiment on H322 was 39.9 ± 0.8%; in the experiment on TE-1 it was 42.2 ± 1.1%; with Colo-680N, 24.9 ± 1.1%. Besides, the “Tumor volume (mm^3)” value in experiment [1] is on record as 96 mm^3. Besides, the “Complete response rate @ Day 59” value in experiment [1] was 1/5. Further, the “Tumor growth inhibition (%) @ Day 22” value in experiment [1] is 107%.
